Here are results for 31 compounds from patent US11414384B2, “P300/CBP hat inhibitors” (Constellation Pharmaceuticals, Inc., priority 2018, dated 2022).

Assay [1] addresses p300 HAT domain (residues 1287-1666) (Homo sapiens (Human), UniProt Q09472). Description: p300 HAT SPA assay (scintillation proximity assay, acetylation of biotinylated H3(1-21) peptide). The conditions noted are these: p300 HAT domain; average of at least 2 replicate titrations; read-out: P300 HAT SPA IC50. It is filed as biochemical. In a few lines:
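Scintillation proximity readout of acetylated biotin-H3(1-21) captured on streptavidin plates after 1.5 hr at RT; enzyme was Ni2+/anion-exchange-purified HAT domain in 20 mM Hepes pH 7.5. Inhibitor IC50s calculated from the data.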

A further assay deals with full length p300 (Homo sapiens (Human), UniProt Q09472). Description: full length p300 SPA assay. It is filed as biochemical. Conditions: average of at least 2 replicate titrations, read-out: FL P300 IC50. The protocol:
Reactions were initiated with 12.5 μL 2 μM biotinylated H3(1-21) peptide (New England Peptide) and run for 1 hr at RT, then quenched with 20 μL stop solution (200 mM Tris pH 8.0, 200 mM EDTA, 2M NaCl, 160 μM anacardic acid). 35 μL of the reaction volume was transferred to a 384-well streptavidin FlashPlate (PerkinElmer) using a Bravo liquid handler (Velocity 11) and incubated for 1.5 hr at RT. Plates were aspirated, washed with 95 μL wash buffer (15 mM Tris pH 8.5, 0.069 μM Brij-35), aspirated, sealed, and scintillation counts read on a Topcount (PerkinElmer). Data were analyzed in Genedata to determine inhibitor IC50 values.
The full length p300 SPA assay was run following the same protocol as p300 HAT SPA assay, but used 6 nM purified full length p300 (purchased from Active Motif) in place of the purified p300-HAT domain.

In assay [2] the test system is acetylation of chromatin at H3K18 (catalyzed by p300 and CBP) in HCT-116 cells. Description: H3K18Ac MSD cellular assay. The assay is classed as cell-based. Conditions: 2 hr treatment, average of at least 2 replicate titrations. In short, it runs like this:
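Cellular H3K18 acetylation quantified by electrochemiluminescent MSD readout, lysates captured on anti-total-histone plates and probed with anti-H3K18ac plus Sulfo-Tag secondary. Before lysis, HCT-116 cells in RPMI/10% FBS, seeded the prior night, were exposed to compounds for 2 h at 37 °C.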

Where only a bound is given, the exact number is not on record here.

Chain of p300 HAT domain (residues 1287-1666) (Q09472 1287-1666): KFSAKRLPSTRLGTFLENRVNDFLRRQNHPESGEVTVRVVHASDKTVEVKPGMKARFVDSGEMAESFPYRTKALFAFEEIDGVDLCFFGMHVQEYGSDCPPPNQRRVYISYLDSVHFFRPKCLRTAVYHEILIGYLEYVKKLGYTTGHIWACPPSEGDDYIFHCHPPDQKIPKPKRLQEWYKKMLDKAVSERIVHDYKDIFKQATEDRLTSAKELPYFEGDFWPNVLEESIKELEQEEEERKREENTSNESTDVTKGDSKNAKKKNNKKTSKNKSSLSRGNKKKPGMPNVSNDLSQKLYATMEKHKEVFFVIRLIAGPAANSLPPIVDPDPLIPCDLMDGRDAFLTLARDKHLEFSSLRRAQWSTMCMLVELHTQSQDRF
Chain of full length p300 (Q09472 whole entry): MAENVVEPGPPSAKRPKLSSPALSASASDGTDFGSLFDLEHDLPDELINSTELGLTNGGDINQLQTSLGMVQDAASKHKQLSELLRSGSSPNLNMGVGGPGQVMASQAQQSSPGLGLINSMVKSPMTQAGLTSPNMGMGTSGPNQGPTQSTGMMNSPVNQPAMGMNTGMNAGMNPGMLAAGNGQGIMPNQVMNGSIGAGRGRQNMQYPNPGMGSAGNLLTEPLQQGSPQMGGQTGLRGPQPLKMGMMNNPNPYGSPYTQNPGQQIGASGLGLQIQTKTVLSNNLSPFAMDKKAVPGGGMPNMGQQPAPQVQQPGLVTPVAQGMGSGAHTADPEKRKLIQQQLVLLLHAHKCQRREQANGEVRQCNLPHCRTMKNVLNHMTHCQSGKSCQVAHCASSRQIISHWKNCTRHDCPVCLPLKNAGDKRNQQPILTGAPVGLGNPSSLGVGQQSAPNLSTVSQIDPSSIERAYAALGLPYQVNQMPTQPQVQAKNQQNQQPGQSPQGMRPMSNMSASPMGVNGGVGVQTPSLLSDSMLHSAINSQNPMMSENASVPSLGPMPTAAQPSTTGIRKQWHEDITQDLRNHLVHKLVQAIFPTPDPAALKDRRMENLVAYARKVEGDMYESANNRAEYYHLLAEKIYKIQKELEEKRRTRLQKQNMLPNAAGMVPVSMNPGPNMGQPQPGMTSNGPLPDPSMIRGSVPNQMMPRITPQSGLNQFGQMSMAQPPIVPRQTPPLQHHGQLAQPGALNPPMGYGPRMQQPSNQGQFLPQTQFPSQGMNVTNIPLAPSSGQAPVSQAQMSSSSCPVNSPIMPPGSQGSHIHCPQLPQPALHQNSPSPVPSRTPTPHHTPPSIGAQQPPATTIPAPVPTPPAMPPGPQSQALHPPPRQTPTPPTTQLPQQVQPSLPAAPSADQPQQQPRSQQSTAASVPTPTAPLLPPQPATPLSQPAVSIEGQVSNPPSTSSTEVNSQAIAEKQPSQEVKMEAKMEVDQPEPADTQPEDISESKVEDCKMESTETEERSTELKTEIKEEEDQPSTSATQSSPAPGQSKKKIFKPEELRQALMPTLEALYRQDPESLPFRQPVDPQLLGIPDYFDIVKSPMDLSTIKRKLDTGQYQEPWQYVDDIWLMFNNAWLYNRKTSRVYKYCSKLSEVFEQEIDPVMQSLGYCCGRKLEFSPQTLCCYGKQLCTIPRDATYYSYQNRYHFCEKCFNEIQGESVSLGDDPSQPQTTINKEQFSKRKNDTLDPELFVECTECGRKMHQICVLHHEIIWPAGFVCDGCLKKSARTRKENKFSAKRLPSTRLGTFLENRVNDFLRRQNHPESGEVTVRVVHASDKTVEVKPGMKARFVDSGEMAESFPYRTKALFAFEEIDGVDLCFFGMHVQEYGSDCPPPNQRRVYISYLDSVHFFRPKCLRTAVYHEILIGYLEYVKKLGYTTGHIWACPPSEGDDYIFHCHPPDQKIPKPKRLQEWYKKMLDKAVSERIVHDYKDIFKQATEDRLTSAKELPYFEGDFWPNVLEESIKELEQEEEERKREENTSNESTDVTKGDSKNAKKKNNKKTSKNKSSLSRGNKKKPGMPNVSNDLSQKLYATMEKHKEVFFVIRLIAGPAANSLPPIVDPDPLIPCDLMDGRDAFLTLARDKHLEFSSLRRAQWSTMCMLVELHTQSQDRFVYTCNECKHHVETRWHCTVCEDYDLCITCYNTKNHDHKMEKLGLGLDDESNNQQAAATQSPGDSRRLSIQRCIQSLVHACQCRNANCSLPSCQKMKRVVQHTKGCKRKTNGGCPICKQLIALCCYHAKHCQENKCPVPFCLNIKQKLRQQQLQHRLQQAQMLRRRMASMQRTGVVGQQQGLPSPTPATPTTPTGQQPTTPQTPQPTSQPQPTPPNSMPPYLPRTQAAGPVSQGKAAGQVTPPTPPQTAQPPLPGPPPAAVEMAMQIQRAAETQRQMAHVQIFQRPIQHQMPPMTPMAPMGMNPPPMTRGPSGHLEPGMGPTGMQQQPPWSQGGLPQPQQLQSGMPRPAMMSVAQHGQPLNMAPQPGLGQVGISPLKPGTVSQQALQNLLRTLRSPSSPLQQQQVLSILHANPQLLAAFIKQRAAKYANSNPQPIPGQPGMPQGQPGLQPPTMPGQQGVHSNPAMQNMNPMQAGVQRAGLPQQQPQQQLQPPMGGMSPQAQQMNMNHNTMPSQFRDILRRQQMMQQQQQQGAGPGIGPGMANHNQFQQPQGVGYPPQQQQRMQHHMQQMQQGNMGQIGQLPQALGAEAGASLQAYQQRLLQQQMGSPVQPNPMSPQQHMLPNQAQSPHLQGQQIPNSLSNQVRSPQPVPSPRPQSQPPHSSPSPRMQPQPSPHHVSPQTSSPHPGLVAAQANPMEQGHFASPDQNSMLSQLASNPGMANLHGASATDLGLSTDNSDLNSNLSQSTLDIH

What is called IC50 is the midpoint of a concentration-inhibition curve. In general, EC50 refers to the concentration needed to bring the measured effect to its halfway point. A higher EC50 goes with a need for much substance. Turning to `CN(C)c1ccc(CCNC(C(=O)c2c[nH]c3ccccc23)c2ccccc2)cc1` (single isomer, unassigned) [39 Isomer 2], the IC50 in assay [1] was found to be 0.77 µM; on full length p300, 0.0275 µM. The EC50 in assay [2] (Homo sapiens, HCT-116, 2 h) amounted to 0.529 µM.
For `O=C(c1c[nH]c2cc(-n3cccn3)ccc12)C(NCCc1ccc(F)cc1)c1ccccc1` (single isomer, unassigned) [118 Isomer 2] the same measures were 2.65 µM, 0.0813 µM and 0.893 µM.
In the case of `O=C(c1c[nH]c2cc(-c3cccnc3)ccc12)C(NCCc1ccc(F)cc1)c1ccccc1` (single isomer, unassigned) [81 Isomer 2], the IC50 in assay [1] was 1.15 µM; at full length p300, 0.0146 µM. The compound further came in with an EC50 in assay [2] (Homo sapiens, HCT-116, 2 h) of 0.193 µM.
For `CN(C)C(=O)c1ccc2c(C(=O)C(NCCc3ccc(Cl)cc3Cl)c3ccccc3)c[nH]c2c1` (single isomer, unassigned) [152 Isomer 2] the same measures were 1.26 µM, 0.0287 µM and 0.327 µM.
For `Cn1cc(-c2ccc3c(C(=O)C(NCCc4ccc(F)cc4)c4ccccc4)c[nH]c3c2)cn1` (single isomer, unassigned) [78 Isomer 2], in that order: 0.716 µM, 0.0109 µM and 0.104 µM.
For `O=C(c1c[nH]c2cc(-n3ccnc3)ccc12)C(NCCc1ccc(F)cc1)c1ccccc1` (single isomer, unassigned) [117 Isomer 1] the same measures were 0.839 µM, 0.0142 µM and 0.162 µM.
In the case of `O=C(c1c[nH]c2cc(-c3ccncc3)ccc12)C(NCCc1ccc(F)cc1)c1ccccc1` (single isomer, unassigned) [82 Isomer 2], the values for the IC50 (in assay [1]; on full length p300) were 0.875 µM and 0.0182 µM, respectively. For the same compound, in assay [2], the EC50 is 0.128 µM.
`CNC(=O)c1ccc2c(C(=O)C(NCCc3ccc(C#N)cc3)c3ccccc3)c[nH]c2c1` (single isomer, unassigned) [156 Isomer 2]: the figures for the IC50 (in assay [1]; on full length p300) were 0.017 µM and less than 0.002 µM, respectively. The same compound registered an EC50 in assay [2] (Homo sapiens, HCT-116, 2 h) of 0.0466 µM.
As to `N#Cc1ccc(CCNC(C(=O)c2c[nH]c3cc(C(=O)O)ccc23)c2ccccc2)cc1` (single isomer, unassigned) [155 Isomer 1], the 50% inhibitory concentration (IC50) was 2.24 µM in assay [1] and 0.0773 µM at full length p300. Besides, the EC50 in assay [2] (Homo sapiens, HCT-116, 2 h) was found to be 16.7 µM.
With `COc1ccc(CCNC(C(=O)c2c[nH]c3c(C)cccc23)c2ccccc2)cc1` (single isomer, unassigned) [80 Isomer 2], the results for the IC50 (in assay [1]; on full length p300) were 1.02 µM and 0.0335 µM, respectively. This compound also had an EC50 in assay [2] (Homo sapiens, HCT-116, 2 h) of 0.817 µM.
For `O=C(c1c[nH]c2ccccc12)C(NCCc1ccc(C(F)(F)F)cc1)c1ccccc1` (single isomer, unassigned) [21 Isomer 1] the same measures were 0.715 µM, 0.1 µM and 0.0913 µM.
For the compound `CCNC(=O)c1ccc2c(C(=O)C(NCC(C)c3ccc(C#N)cc3)c3ccccc3)c[nH]c2c1` (single isomer, unassigned) [75 Isomer 4], the IC50 was 0.00876 µM in assay [1] and 0.000711 µM on full length p300. Also, the EC50 in assay [2] (Homo sapiens, HCT-116, 2 h) worked out at 0.0193 µM.
For `CNC(=O)c1ccc(CCNC(C(=O)c2c[nH]c3ccccc23)c2ccccc2)cc1` (single isomer, unassigned) [134 Isomer 2], in that order: 5.16 µM, 0.151 µM and 1.57 µM.
For `NS(=O)(=O)c1ccc(CCNC(C(=O)c2c[nH]c3cnccc23)c2ccccc2)cc1` (single isomer, unassigned) [32 Isomer 1] the same measures were 1.45 µM, 0.102 µM and 3.67 µM.
For `O=C(c1c[nH]c2ccccc12)C(NCCc1ccc(Cl)cc1)c1cccnc1` (racemic) [43 Racemic, (rac)-2-((4-chlorophenethyl)amino)-1-(1H-indol-3-yl)-2-(pyridin-3-yl)ethan-1-one], in that order: 4.21 µM, 0.145 µM and 3.9 µM.
As to `O=C(O)c1ccc(CCNC(C(=O)c2c[nH]c3ccccc23)c2ccccc2)cc1` (single isomer, unassigned) [132 Isomer 1], the IC50 in assay [1] is 1.83 µM; at full length p300 it was 0.0633 µM. Besides, in assay [2] (Homo sapiens, HCT-116, 2 h), the EC50 worked out at 4.45 µM.
Consider `CNC(=O)Cn1cc(-c2ccc3c(C(=O)C(NCCc4ccc(Cl)cc4)c4ccccc4)c[nH]c3c2)cn1` (single isomer, unassigned) [87 Isomer 2], for which the IC50 in assay [1] is 0.2 µM; at full length p300, 0.0116 µM. This compound also showed an EC50 in assay [2] (Homo sapiens, HCT-116, 2 h) of 0.113 µM.
For `CC(CNC(C(=O)c1cnn2cc(-c3cnn(C)c3)ccc12)c1ccccc1)c1ccc(C#N)cc1` (single isomer, unassigned) [102 Isomer 4], in that order: 0.00936 µM, 0.000818 µM and 0.043 µM.
For `COc1ccc2c(C(=O)C(NCCc3ccc(Cl)cc3)c3ccccc3)c[nH]c2c1` (single isomer, unassigned) [60 Isomer 2], in that order: 1.09 µM, 0.178 µM and 0.546 µM.
For `CCNC(=O)c1ccc2c(C(=O)C(NCC(C)c3ccc(C#N)cc3)c3ccccc3)cnn2c1` (single isomer, unassigned) [69 Isomer 4] the same measures were 0.0207 µM, 0.0179 µM and 0.0439 µM.
With `O=C(c1cnc2ccccn12)C(NCCc1ccc(Cl)cc1)c1ccccc1` (single isomer, unassigned) [46 Isomer 2], the IC50 was determined as 6.55 µM in assay [1] and 0.283 µM on full length p300. This compound also registered an EC50 in assay [2] (Homo sapiens, HCT-116, 2 h) of 29.4 µM.
For `NC(=O)c1ccc(CCNC(C(=O)c2c[nH]c3ccccc23)c2ccccc2)cc1` (single isomer, unassigned) [133 Isomer 2] the same measures were 2.12 µM, 0.101 µM and 1.44 µM.
For `O=C(c1c[nH]c2cc(OCc3ccccc3)ccc12)C(NCCc1ccc(F)cc1)c1ccccc1` (single isomer, unassigned) [61 Isomer 2], in that order: 1.07 µM, 0.0497 µM and 0.825 µM.
For `NS(=O)(=O)c1ccc(CCNC(C(=O)c2c[nH]c3c(Cl)cccc23)c2ccccc2)cc1` (single isomer, unassigned) [15 Isomer 2] the same measures were 1.49 µM, 0.0812 µM and 0.405 µM.
`CCNC(=O)c1ccc2c(C(=O)[C@@H](NCCc3ccc(C#N)cc3)c3ccccc3)c[nH]c2c1` (single isomer, unassigned) [146 Isomer 2]: the results for the IC50 (in assay [1]; at full length p300) were 0.026 µM and 0.014 µM, respectively. In addition, in assay [2], a half-maximal effect (EC50) was put at 0.0366 µM.
As for `CN1CCC(Oc2ccc3c(C(=O)C(NCCc4ccc(C#N)cc4)c4ccccc4)c[nH]c3c2)CC1` (single isomer, unassigned) [126 Isomer 2], the IC50 in assay [1] was found to be 0.0362 µM; at full length p300, 0.00219 µM. This compound also came in with an EC50 in assay [2] (Homo sapiens, HCT-116, 2 h) of 0.154 µM.
For `CN(C)C(=O)CCc1ccc2c(C(=O)C(NCCc3ccc(F)cc3)c3ccccc3)c[nH]c2c1` (single isomer, unassigned) [49 Isomer 2] the same measures were 2.21 µM, 0.0553 µM and 0.754 µM.
For `Cc1nc(C(=O)C(NCCc2ccc(Cl)cc2)c2ccccc2)c2ccccn12` (single isomer, unassigned) [45 Isomer 1] the same measures were 5.55 µM, 0.219 µM and 13.4 µM.
`CN(C)C(=O)Cc1ccc2c(C(=O)C(NCCc3ccc(C#N)cc3)c3ccccc3)c[nH]c2c1` (single isomer, unassigned) [63 Isomer 1]: the IC50 in assay [1] came to 0.382 µM; at full length p300, 0.00878 µM. Besides, the concentration giving a half-maximal response (EC50) in assay [2] (Homo sapiens, HCT-116, 2 h) came to 0.337 µM.
For `COc1ccc2c(C(=O)C(NCCc3ccc(S(N)(=O)=O)cc3)c3ccccc3)c[nH]c2c1` (single isomer, unassigned) [51 Isomer 2], in that order: 1.29 µM, 0.0255 µM and 0.324 µM.
For `CN1CCN(c2ccc3c(C(=O)C(NCCc4ccc(F)cc4)c4ccccc4)c[nH]c3c2)CC1` (single isomer, unassigned) [123 Isomer 2], in that order: 0.808 µM, 0.0123 µM and 0.216 µM.
